Measured values reported in patent US7528239B1, “Receptor that binds trail” (Immunex Corporation, priority 1997, dated 2009).
Peptide text beside a SMILES is read from it. * marks the point of attachment. Cbz = O=C(OCc1ccccc1)*; CH2F = FC*

Experiments:
[1] = test system: CV-1/EBNA cells expressing TRAIL-R; assay: TRAIL-R-induced death of transfected CV-1/EBNA cells (lacZ co-transfection, X-gal staining); assay type: cell-based, African green monkey; conditions: 48 hours after transfection
Experimental: CV-1/EBNA cells were transfected, by the DEAE-dextran method, with expression plasmids for TRAIL-R (pDC409-TRAIL-R), together with a threefold excess of empty expression vector (pDC409) in the presence or absence of z-VAD-fmk (10 μM; in the culture medium), or together with a threefold excess of expression vector pDC409-CrmA, pDC409-p35, or pDC409-FADD-DN. In addition, 400 ng/slide of an expression vector for the E. coli lacz gene was co-transfected together with all DNA mixes. The transfected cells were cultured in chambers mounted on slides.
48 hours after transfection, cells were washed with PBS, fixed with glutaraldehyde and incubated with X-gal (5-bromo-4-chloro-3-indoxyl-β-D-galactopyranoside). Cells expressing β-galactosidase stain blue. A decrease in the percentage of stained cells indicates loss of β-galactosidase expression, and correlates with death of cells that express the protein(s) co-transfected with the lacz gene.

[2] = molecular target: T1, full length human TRAIL-R (Homo sapiens, UniProt O14763, V191A); assay: FACS binding assay of LZ-TRAIL to CV-1/EBNA cells expressing recombinant TRAIL-R; conditions: LZ-TRAIL 5 μg/ml; cells co-transfected with TRAIL-R and CrmA vectors compared to CrmA vector alone; 48 hours after transfection
T1 construct: expressed in transfected cells; host or cells: CV-1/EBNA cells, co-transfected with pDC409-CrmA
Experimental: Full length human TRAIL-R was expressed and tested for the ability to bind TRAIL. The binding assay was conducted as follows.
A fusion protein comprising a leucine zipper peptide fused to the N-terminus of a soluble TRAIL polypeptide (LZ-TRAIL) was employed in the assay. An expression construct was prepared, essentially as described for preparation of the Flag®-TRAIL expression construct in Wiley et al. (Immunity, 3:673-682, 1995; hereby incorporated by reference), except that DNA encoding the Flag® peptide was replaced with a sequence encoding a modified leucine zipper that allows for trimerization. The construct, in expression vector pDC409, encoded a leader sequence derived from human cytomegalovirus, followed by the leucine zipper moiety fused to the N-terminus of a soluble TRAIL polypeptide. The TRAIL polypeptide comprised amino acids 95-281 of human TRAIL (a fragment of the extracellular domain), as described in Wiley et al. (supra). […]
CV-1/EBNA cells were co-transfected with pDC409-TRAIL-R together with pDC409-CrmA, or with pDC409-CrmA alone. […] 48 hours after transfection, cells were detached non-enzymatically and incubated with LZ-TRAIL (5 μg/ml), a biotinylated anti-LZ monoclonal antibody (5 μg/ml), and phycoerythrin-conjugated streptavidin (1:400), before analysis by fluorescence-activated cell scanning (FACS). […]

[3] = test system: TRAIL-induced apoptosis of Jurkat cells; assay: Blocking of TRAIL-induced apoptosis of Jurkat cells (MTT cell viability assay); assay type: cell-based, human; conditions: LZ-TRAIL 13 ng/ml, test substance serially diluted from 10 μg/ml
Experimental: TRAIL-R was tested for the ability to block TRAIL-induced apoptosis of Jurkat cells. The TRAIL-R employed in the assay was in the form of a fusion protein designated sTRAIL-R/Fc, which comprised the extracellular domain of human TRAIL-R, fused to the N-terminus of an Fc polypeptide derived from human IgG1.
A fusion protein designated TNF-R2—Fc, employed as a control, comprised the extracellular domain of the TNF receptor protein known as p75 or p80 TNF-R (Smith et al., Science 248:1019-1023, 1990; Smith et al. Cell 76:959-962, 1994), fused to an Fc polypeptide. A mouse monoclonal antibody that is a blocking antibody directed against human TRAIL, was employed in the assay as well.
Jurkat cells were incubated with varying or constant concentrations of LZ-TRAIL (the LZ-TRAIL fusion protein described in example 6), in the absence or presence of varying concentrations of sTRAIL-R-Fc, TNF-R2-Fc, or the TRAIL-specific monoclonal antibody. Cell death was quantitated using an MTT cell viability assay (MTT is 3-[4,5-dimethylthiazol-2-yl]-2,5-diphenyltetrazolium bromide), as previously described (Mosmann, J. Immunol. Methods 65:55-63, 1983). […]

## COC(=O)C[C@H](NC(=O)[C@H](C)NC(=O)[C@@H](NC(=O)OCc1ccccc1)C(C)C)C(=O)CF [z-VAD-fmk, benzyloxycarbonyl-Val-Ala-Asp-fluoromethylketone, reference compound] (Cbz-Val-Ala-Asp(OMe)-CH2F)
[1]; 10 μM in the culture medium
  reduction of death of transfected cells expressing TRAIL-R: effectively reduced death

## LZ-TRAIL: leucine zipper peptide fused to the N-terminus of a soluble TRAIL polypeptide (amino acids 95-281 of human TRAIL)
[2]
  binding of LZ-TRAIL to transfected cells: significantly enhanced binding

## sTRAIL-R/Fc: extracellular domain of human TRAIL-R, fused to the N-terminus of an Fc polypeptide derived from human IgG1
[3]
  blocking of TRAIL-induced apoptosis (percent cell death): blocked TRAIL-induced apoptosis in a dose dependent fashion
[3]; listed as soluble TRAIL-R/Fc fusion protein
  blocking of TRAIL-induced apoptosis (percent cell death): blocked TRAIL-induced apoptosis

B1: baculovirus p35: 35-kilodalton protein encoded by Autographa californica nuclear polyhedrosis virus, expressed from pDC409-p35 (protein, UniProt P08160 1-299, looked up)
Early 35 kDa protein: MCVIFPVEIDVSQTIIRDCQVDKQTRELVYINKIMNTQLTKPVLMMFNISGPIRSVTRKNNNLRDRIKSKVDEQFDQLERDYSDQMDGFHDSIKYFKDEHYSVSCQNGSVLKSKFAKILKSHDYTDKKSIEAYEKYCLPKLVDERNDYYVAVCVLKPGFENGSNQVLSFEYNPIGNKVIVPFAHEINDTGLYEYDVVAYVDSVQFDGEQFEEFVQSLILPSSFKNSEKVLYYNEASKNKSMIYKALEFTTESSWGKSEKYNWKIFCNGFIYDKKSKVLYVKLHNVTSALNKNVILNTIK
[1]; co-transfected, threefold excess of expression vector
  reduction of death of transfected cells expressing TRAIL-R: effectively reduced death
